# Activity calls are given as the source filed them. The calls are words filed in the database; no cut-off is given here.
# Columns and labels:
# Mus musculus [1] = assay: Toxicity in Mus musculus Swiss albino (mouse) assessed as mortality at 4 mg/kg, po; assay type: organism-based; set-up: dose 4 mg/kg, route oral; conditions: in vivo
# Mus musculus [2] = assay: Anticonvulsant activity against pentylenetetrazole-induced seizures in Mus musculus Swiss albino (mouse) assessed as onset of seizures at 4 mg/kg, po administered 1 hr prior challenge; assay type: functional, organism-based; set-up: dose 4 mg/kg
# Mus musculus [3] = species on record: Mus musculus; assay: Anxiolytic activity in Mus musculus Swiss albino (mouse) assessed as time spent in open arm by elevated plus maze test; assay type: functional
# Mus musculus [4] = assay: Anxiolytic activity in Mus musculus Swiss albino (mouse) assessed as time spent in light chamber at 2 mg/kg by light-dark box test; assay type: functional
# Mus musculus [5] = assay: Anticonvulsant activity against maximal electroshock-induced seizures in Mus musculus Swiss albino (mouse) assessed as animals protected at 25 mg/kg; assay type: functional
# Mus musculus [6] = assay: Anticonvulsant activity against maximal electroshock-induced seizures in Mus musculus Swiss albino (mouse) assessed as time duration of tonic limb extensor at 25 mg/kg; assay type: functional
# Mus musculus [7] = assay: Toxicity in Mus musculus Swiss albino (mouse) assessed as mortality at 25 mg/kg, po; assay type: organism-based; set-up: dose 25 mg/kg, route oral; conditions: in vivo
# Mus musculus [8] = assay: Antidepressant activity in Mus musculus Swiss albino (mouse) assessed as as increase in mobile phase at 25 mg/kg, ip measured after 1 hr by tail suspension test; assay type: functional; conditions: route intraperitoneal
# Mus musculus [9] = assay: Antidepressant activity in Mus musculus Swiss albino (mouse) assessed as duration of immobility at 25 mg/kg, ip measured after 1 hr by forced swim test test relative to pretreatment; assay type: functional; conditions: route intraperitoneal
# Mus musculus [10] = assay: Anticonvulsant activity against pentylenetetrazole-induced seizures in Mus musculus Swiss albino (mouse) assessed as onset of seizures at 25 mg/kg, po administered 1 hr prior challenge; assay type: functional
# Mus musculus [11] = assay: Anxiolytic activity in Mus musculus Swiss albino (mouse) assessed as time spent in light chamber at 25 mg/kg by light-dark box test; assay type: functional
# Mus musculus [12] = assay: Anticonvulsant activity against maximal electroshock-induced seizures in Mus musculus Swiss albino (mouse) assessed as animals protected at 40 mg/kg; assay type: functional
# Mus musculus [13] = assay: Anticonvulsant activity against maximal electroshock-induced seizures in Mus musculus Swiss albino (mouse) assessed as time duration of tonic limb extensor at 40 mg/kg; assay type: functional
# Mus musculus [14] = assay: Antidepressant activity in ip dosed Mus musculus Swiss albino (mouse) assessed as duration of immobility measured after 1 hr by forced swim test relative to pretreatment; assay type: functional
Compound,Activity (Mus musculus [1]),Activity (Mus musculus [2]),Time (Mus musculus [3]),Time (Mus musculus [4]),Activity (Mus musculus [5]),Time (Mus musculus [6]),Activity (Mus musculus [7]),Activity (Mus musculus [8]),Activity (Mus musculus [9]),Time (Mus musculus [10]),Time (Mus musculus [11]),Activity (Mus musculus [12]),Time (Mus musculus [13]),Activity (Mus musculus [14])
CN1C(=O)CN=C(c2ccccc2)c2cc(Cl)ccc21 [DIAZEPAM],Non-toxic,Active,58.76 s,193 s,,,,,,,,,,
O=C(Nc1nnc(Sc2ccc(F)cc2)s1)c1ccccc1,,,32.694 s,,0%,6.37 s,Non-toxic,28.45%,-20.3%,91.416 s,153.66 s,,,
O=C(Nc1nnc(Sc2ccc(S(=O)(=O)Cl)cc2)s1)c1ccccc1,,,34.11 s,,0%,6.25 s,Non-toxic,49.29%,-33.58%,102.26 s,166.66 s,,,
Cc1ccc(Sc2nnc(NC(=O)c3ccccc3)s2)cc1,,,31.13 s,,0%,7.35 s,Non-toxic,17.26%,1.35%,78.35 s,143 s,,,
O=C(Nc1nnc(Sc2ccc(C(Cl)(Cl)Cl)cc2)s1)c1ccccc1,,,20.38 s,,0%,7.08 s,Non-toxic,30.7%,-22.15%,71.21 s,152.33 s,,,
O=C1NC(=O)C(c2ccccc2)(c2ccccc2)N1 [PHENYTOIN],,,,,,,,,,,,100%,0 s,
O=C(Nc1nnc(Sc2ccc(C(F)(F)F)cc2)s1)c1ccccc1,,,29.86 s,,0%,6.18 s,Toxic,46.93%,-29.78%,81.74 s,163 s,,,
NS(=O)(=O)c1ccc(Sc2nnc(NC(=O)c3ccccc3)s2)cc1,,,38.5 s,,0%,6.7 s,Toxic,49.86%,-33.22%,86.98 s,163.66 s,,,
CN(C)CCCN1c2ccccc2CCc2ccccc21.Cl [IMIPRAMINE HYDROCHLORIDE],,,,,,,,,,,,,,-47.48%
O=C(Nc1nnc(Sc2ccc(Br)cc2)s1)c1ccccc1,,,20.88 s,,0%,7.96 s,Toxic,12%,1.1%,78.27 s,153.16 s,,,

# From ChEMBL document CHEMBL3046241, “Synthesis and evaluation of 2-amino-5-sulfanyl-1,3,4-thiadiazoles as antidepressant, anxiolytic, and anticonvulsant agents” (Med Chem Res, 2009)
